Patent US20250009790A1, “METHODS FOR INDUCING VASODILATION” (THE FLOREY INSTITUTE OF NEUROSCIENCE AND MENTAL HEALTH, priority 2021, published 2025)
“Also recorded” adds a separate entry of the source.

What was measured:
[1] = target: T1, CGRP receptors (Rattus norvegicus, UniProt Q63118+Q9JJ74); assay: Zinc bis(histidinate)-induced cutaneous vasodilation after CGRP receptor antagonist pre-treatment (LDF); type: in vivo; conditions: rat hind paw; BIBN4096 3 mg/kg i.v. pre-treatment before Zn-bis-His 3, 10 and 30 mg/kg i.v.
T1 construct: from tissue; host or cells: live anaesthetized rat, hind-paw skin vasculature (in vivo)
Protocol: (§1) Rats were anaesthetized with urethane (2 g/kg i.p.) after light anaesthesia with inhalation of 5% isoflurane. A laser Doppler probe (OxyFlo probe MSP300XP; ADI Blood Flowmeter) was placed on one hind paw (hair removed with depilatory cream). The animal was allowed to stabilize for 30 min to establish baseline parameters. A single i.v. dose of zinc bis(histidinate) was then administered at 3 mg/kg. The haemodynamic and cutaneous blood flow measurements by laser Doppler flow (LDF) were recorded continuously for 15 min. Then, the effects of 10 mg/kg and 30 mg/kg doses of zinc bis(histidinate) were tested.
In order to better understand the effect of zinc bis(histidinate) on cutaneous blood flow, vasodilation mediated by sensory nerves was blocked by pre-treatment of the rat with a CGRP (calcitonin gene-related peptide) receptor antagonist. A dose of 3 mg/kg BIBN4096 (olcegepant, a known CGRP receptor antagonist was administered intravenously by slow infusion over 10 minutes prior to subsequent administration of zinc bis(histidinate) and measurement of cutaneous blood flow by LDF as described in Example 2.

[2] = tested on: rat hind paw; assay: Cutaneous blood flow by laser Doppler flow in anaesthetized rat hind paw; type: in vivo; conditions: Zn-bis-His 3, 10 and 30 mg/kg i.v., L-His 67 mg/kg i.v.
Protocol: For in vivo measurements of cutaneous blood flow, an average of 3 s consecutive values calculated every 5 s were computed by LabChart software and the data were transformed as percentage of baseline (an average of 1.5 min recording before each dose). The area under the curve (AUC) for change from baseline values was calculated in Prism 8 software. MAP, hindquarter flow and conductance were taken immediately before and every 5 min after a single dose of treatment.
as §1

[3] = tested on: sheep during cardiopulmonary bypass; conditions: cited from earlier work
[4] = tested on: rat mesenteric arteries; assay: Relaxation of isolated rat mesenteric arteries contracted with U46619 (myograph); type: cell-based; conditions: arteries contracted with thromboxane mimetic U46619
Excerpt: Functional in vitro protocols in isolated arteries. Human internal mammary artery and saphenous vein or a range of vessels from rats and mice (left main or anterior descending coronary arteries [250-400 μm internal diameter, i.d.], second order pulmonary interlobar arteries [300-600 μm i.d.], second or third order mesenteric arteries [200-350 μm i.d.], interlobar renal arteries [250-350 μm i.d.], saphenous arteries or veins [300-600 μm i.d.]), or the thoracic aorta were dissected and placed in ice-cold PSS-A with the following composition (mmol/L, mM): NaCl 119; KCl 4.69; MgSO4·7H2O 1.17; KH2PO4 1.18; glucose 5.5; NaHCO3 25; CaCl2·6H2O 2.5 saturated with carbogen (O2 95%; CO2 5%) at pH 7.4. In addition, rat middle cerebral (250-400 μm i.d.) and basilar (250-450 μm i.d.) arteries were used and for these vessels the PSS-A contained 1.5 mM CaCl2 to minimize the occurrence of spontaneous contractions.
After isolation of vessels, ˜2 mm length segments of arteries were mounted in myograph chambers (Model 610M and 620M; Danish Myo Technology, Denmark) containing PSS-A at 37° C. for isometric force measurement as described previously. Contractile and relaxation responses using rat and mice isolated vessels were recorded with LabChart 7 and a PowerLab 4/30 A/D converter (AD Instruments Pty Ltd, Australia) while those including human isolated vessels were recorded with LabChart 8 (AD Instruments) and Myodaq and Myodata 2.01 (Maastricht University, Maastricht, Netherlands). To normalize the basal conditions, the vessels were passively stretched according to a normalization protocol and adjusted to a diameter setting of 90% of that determined for an equivalent transmural pressure of 100 mmHg (30 mmHg for veins). After allowing the tissues to equilibrate for 30 min, the arteries were exposed to a potassium depolarizing solution (124 mM K^+ replacing Na^+ in PSS; termed KPSS) and noradrenaline (10 μM) for 2 min (chemicals, their source and preparation are provided in the online supplement). A second exposure to KPSS solution (only) was used to provide a reference contraction.
Five structurally dissimilar zinc delivery agents (zinc pyrithione, zinc disulfiram, clioquinol, Zn(DTSM) and zinc bis(histidinate)) were administered to rat mesenteric arteries according to the protocols above and the extent to which the arteries contracted were recorded. Acetylcholine and clioquinol were also administered and contractions recorded.

[5] = Mean arterial pressure in anaesthetized rat (carotid artery catheter); type: in vivo; conditions: bolus i.v. 3, 10 and 30 mg/kg, measured for 10 minutes
Protocol: In vivo blood pressure and flow measurement. Rats and mice were anaesthetized by inhalation of 5% isoflurane (in O2) followed by i.p. injection of pentobarbitone in rats (60 mg/kg; TROY Laboratories, NSW, Australia, maintained by top up doses of 10-20 mg/kg i.v.) or i.p. injection of urethane (2.5 g/kg; Sigma, maintained by top up doses of 0.05-0.1 g/kg i.v.). Animals were placed on a homeostatic blanket system to maintain body temperature at 37±1° C. Lignocaine (1% s.c.) was injected for placement of a tracheotomy tube (for mechanical ventilation), carotid artery and jugular vein catheters.
All drug treatments were administered via the jugular vein catheter. Pulsatile blood pressure, mean arterial pressure (MAP) and heart rate (HR; beats/min) were measured via the carotid artery catheter filled with heparinized (10 U/ml; Pfizer, NY, USA) saline 0.9% and connected to a pressure transducer (Argon Medical Devices, Athens, Greece) and the output was recorded with LabChart 7 and a Powerlab 8SP (AD Instruments). […]
An increase in cutaneous blood flow associated with vasorelaxation typically results in a decrease in arterial pressure. Mean arterial pressure in a rat after administration of zinc bis(histidine) (3 mg/kg, 10 mg/kg or 30 mg/kg) or L-histidine (67 mg/kg) was measured by a pressure transducer attached to a catheter inserted in carotid artery as described in Example 2.

[6] = tested on: ovine model of cardiopulmonary bypass; assay: Ovine cardiopulmonary bypass with intra-operative zinc bis(histidinate) infusion; type: in vivo; conditions: sheep on CPB (2 h); 3, 10 and 30 mg/kg infusion i.v. every 20 min
Excerpt: Two merino ewes (35-50 kg bodyweight) were housed in individual metabolic cages with access to 5 litres of water and 800 g of oaten chaff daily. The sheep underwent a preparatory surgical procedure under isoflurane anaesthesia for the implantation of a transit-time flow probe around the renal artery for measurement of renal blood flow. Fibre-optic probes were inserted into the cerebral cortex, renal cortex and renal medulla for measurement of tissue perfusion, pO2 and temperature (see Calzavacca et al., 2015, Am J Physiol Regul Integr Comp Physiol 308, R832-839). Catheters were inserted into the renal and jugular veins, carotid artery and bladder. The experiments were undertaken five days later. Intra-operative analgesics and antibiotics were administered as described previously (Lankadeva et al., 2019, Kidney Int 95 1338-1346; Evans et al., 2020, Am J Physiol Regul Integr Comp Physiol 318, R206-R213; Lankadeva et al., 2021, Acta Physiologica doi.org/10.1111/apha.13596, e13596). Mean arterial pressure, renal blood flow, cerebral cortical, renal cortical and renal medullary tissue perfusion, and temperature were continuously recorded across a series of experimental periods. Arterial, mixed venous and renal venous blood samples were collected every 30 min for blood oximetry and biochemistry (ABL systems 625, Copenhagen, Denmark).
During the first 30 minutes, sheep were awake and unrestrained in their home metabolic cage. Anaesthesia was induced with sodium thiopental (15 mg/kg) and after endotracheal intubation, maintained on isoflurane (2.0%-2.5%) via an artificial ventilator prior to cardiopulmonary bypass or via a membrane oxygenator during cardiopulmonary bypass (FiO2: 60%). This FiO2 was chosen because it is standard during cardiac surgery at the inventors affiliated clinical centre. From the onset of anaesthesia, sheep received a maintenance infusion of compound sodium lactate (2 mL/kg/h; Baxter, NSW, Australia) for the entire duration of the experiment. Once stable anaesthesia was attained, a second experimental period (30 minutes) commenced. Cardiopulmonary bypass was then achieved at a target pump flow of 80 mL/kg/min, a target MAP of 65 mmHg, and a target body temperature of 34.5° C. The prefusion circuit was primed with 300-500 mL of blood from a donor animal, 1 g cefazolin (AFT Pharmaceuticals, NSW, Australia), 50 mL mannitol (20% wt/vol Osmitrol, Baxter, NSW, Australia) and 10 000 IU heparin, made up to 1.3 L with compound sodium lactate. Metaraminol (Metaraminol Montrose, Montrose Life Sciences, NSW, Australia) was administered in boluses of ˜0.25 mg (using a 0.5 mg/mL solution) only in cases where increasing pump flow was not sufficient to attain the target mean arterial pressure during cardiopulmonary bypass. Once stable cardiopulmonary bypass was attained, the sheep was maintained for ˜2 hours before starting a zinc bis(histidinate) infusion (18 mg/ml solution made freshly in 0.45% saline solution and filtered). For the first 20 min, volume equivalent to 3 mg/kg zinc bis(histidinate) was infused, followed by 20 minute of 10 mg/kg and then 20 min of 30 mg/kg zinc bis(histidinate). Plasma was collected every 30 min following the start of anaesthesia. Zinc levels in plasma were analysed using inductively coupled plasma mass spectroscopy (ICP-MS).

[7] = listed as Zinc bis(histidinate)

T1 sequence (Q63118 24-464): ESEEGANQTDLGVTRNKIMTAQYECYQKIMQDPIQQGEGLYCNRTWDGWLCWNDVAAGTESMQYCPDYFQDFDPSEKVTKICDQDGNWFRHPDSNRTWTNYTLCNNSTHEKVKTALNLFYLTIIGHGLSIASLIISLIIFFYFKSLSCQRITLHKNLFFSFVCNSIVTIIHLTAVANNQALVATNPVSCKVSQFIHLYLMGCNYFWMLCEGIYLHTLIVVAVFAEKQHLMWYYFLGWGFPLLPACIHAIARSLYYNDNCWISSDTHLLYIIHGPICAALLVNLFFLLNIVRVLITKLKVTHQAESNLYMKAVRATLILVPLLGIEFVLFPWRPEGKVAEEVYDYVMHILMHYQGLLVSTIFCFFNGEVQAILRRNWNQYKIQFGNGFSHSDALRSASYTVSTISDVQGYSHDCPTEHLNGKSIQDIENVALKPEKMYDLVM
T1 sequence (Q9JJ74 27-148): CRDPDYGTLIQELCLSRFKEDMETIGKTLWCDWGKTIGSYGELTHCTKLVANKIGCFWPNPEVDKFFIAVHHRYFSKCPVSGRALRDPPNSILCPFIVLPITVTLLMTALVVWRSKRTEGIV

## NCCCC[C@H](NC(=O)[C@@H](Cc1cc(Br)c(O)c(Br)c1)NC(=O)N1CCC(N2Cc3ccccc3NC2=O)CC1)C(=O)N1CCN(c2ccncc2)CC1 [BIBN4096, olcegepant]
[1]
  Effect on zinc bis(histidinate)-induced vasodilation (area under the vasodilation curve, LDF): reduction in vasodilation; also recorded: attenuated the effect

## N[C@@H](Cc1c[nH]cn1)C(=O)O [L-histidine, reference compound]
[2]
  Cutaneous blood flow (laser Doppler flux): did result in the same increase
[2]; listed as L-His
  Cutaneous blood flow (laser Doppler flux): did not cause an increase in cutaneous blood flow

## C[C@H](N)[C@H](O)c1cccc(O)c1 [Metaraminol]
[3]
  Systemic vascular conductance: increased systemic vascular conductance

## CNC([S-])=NN=C(C)C(C)=NN=C([S-])NC.[Zn+2] [Zn(DTSM)]
[4]
  Relaxation of rat mesenteric arteries: showed relaxation

## Oc1c(I)cc(Cl)c2cccnc12 [clioquinol]
[4]
  Relaxation of rat mesenteric arteries: showed relaxation

## N[C@@H](Cc1c[nH]cn1)C(=O)O [histidine]
[4]
  Relaxation of rat mesenteric arteries: did not provide the same relaxation; also recorded: little relaxation

## [Zn] [zinc]
[4]
  Relaxation of rat mesenteric arteries: minimal effects; also recorded: little relaxation

## zinc bis(histidinate)
[4]
  Relaxation of rat mesenteric arteries: showed relaxation; also recorded: greater relaxation
[4]; listed as zinc-bis-histidinate
  Relaxation of rat mesenteric arteries: dependent on the concentration
[2]
  Cutaneous blood flow (laser Doppler flux): increased cutaneous blood flow
[2]; [7]
  Cutaneous blood flow (laser Doppler flux): caused an increase in cutaneous blood flow
[2]; listed as zinc bis(histidine)
  Cutaneous blood flow (laser Doppler flux): increased blood flow
[5]
  Mean arterial pressure: expected decrease in arterial pressure was not observed
[5]; [7]
  Mean arterial pressure: does not change mean arterial pressure
[6]
  Cerebral cortical microcirculatory perfusion: rescued
  Renal blood flow: dose-dependent improvement
  Renal cortical microcirculatory perfusion: rescued
  Renal medullary microcirculatory perfusion: rescued
  Renal oxygen delivery: dose-dependent improvement
  Renal vascular resistance: dose-dependent improvement
  Systemic mean arterial pressure: without compromising systemic mean arterial pressure

## zinc disulfiram
[4]
  Relaxation of rat mesenteric arteries: showed relaxation

## zinc pyrithione
[4]
  Relaxation of rat mesenteric arteries: showed relaxation
